Laboratory results reported in patent publication US20190022152A1, “MICROBIOME RESPONSE TO AGENTS” (Yeda Research and Development Co., Ltd., priority 2014, published 2019).
Like-named read-outs stand apart in the source and are kept apart here.

Tested on: fecal microbiota
Conditions: fecal samples, 11 weeks consumption
Method: Illumina sequence reads were mapped to the human microbiome reference genome database of the Human Microbiome Project [www(dot)hmpdacc(dot)org/HMREFG/^32], and to a gut microbial gene catalogue^33 using GEM mapper^58 with the following parameters: • -m 3 -s 0 -q offset-33 -gem-quality-threshold 26
Microbial species abundance was measured as the fraction of reads that mapped to a single species in the database. An EM algorithm adapted from Pathoscope^59 was employed to determine the correct assignment of reads that mapped to more than one species. We considered only species for which at least 10% of the genome was covered (each coverage bin was 10,000-bp long) in at least one of the growth conditions (saccharin, water, or glucose). Reads mapped to the gut microbial gene catalogue were assigned a KEGG^34,35 ID according to the mapping available with the catalogue. Genes were subsequently mapped to KEGG pathways, and only pathways whose gene coverage was above 0.2 were included.

With `OC[C@H]1OC(O)[C@H](O)[C@@H](O)[C@@H]1O` (stereo partly drawn) [Glucose] the “Fold change (week 11/week 0) in relative species abundance” value (Symbol BACT_9, Number 996) was 1.24, the “Fold change (week 11/week 0) in relative species abundance” value (Symbol BACT_49, Number 420) was 0.15 and the “Fold change (week 11/week 0) in relative species abundance” value (Symbol BACT_60, Number 752) was 0.88. The “Fold change (week 11/week 0) in relative species abundance” value (Symbol BACT_65, Number 918) was 1.20, the “Fold change (week 11/week 0) in relative species abundance” value (Symbol BACT_70, Number 863) was 1.58 and the “Fold change (week 11/week 0) in relative species abundance” value (Symbol BACT_85, Number 934) was 0.91. The “Fold change (week 11/week 0) in relative species abundance” value (Symbol BACT_170, Number 883) was 0.93, the “Fold change (week 11/week 0) in relative species abundance” value (Symbol BACT_171, Number 748) was 1.24 and the “Fold change (week 11/week 0) in relative species abundance” value (Symbol BACT_178, Number 921) was 1.53. The “Fold change (week 11/week 0) in relative species abundance” value (Symbol BACT_181, Number 767) was 1.14, the “Fold change (week 11/week 0) in relative species abundance” value (Symbol BACT_185, Number 633) was 5.63 and the “Fold change (week 11/week 0) in relative species abundance” value (Symbol BACT_189, Number 636) was 1.66. For the same molecule, the “Fold change (week 11/week 0) in relative species abundance” value (Symbol BACT_192, Number 995) was 0.86, the “Fold change (week 11/week 0) in relative species abundance” value (Symbol BACT_195, Number 523) was 1.15 and the “Fold change (week 11/week 0) in relative species abundance” value (Symbol BACT_225, Number 953) was 1.18. The “Fold change (week 11/week 0) in relative species abundance” value (Symbol BACT_258, Number 620) was 1.13, the “Fold change (week 11/week 0) in relative species abundance” value (Symbol BACT_260, Number 1443) was 0.94 and the “Fold change (week 11/week 0) in relative species abundance” value (Symbol BACT_300, Number 769) was 1.16. For the same molecule, the “Fold change (week 11/week 0) in relative species abundance” value (Symbol BACT_413, Number 847) was 1.17, the “Fold change (week 11/week 0) in relative species abundance” value (Symbol BACT_419, Number 920) was 0.67 and the “Fold change (week 11/week 0) in relative species abundance” value (Symbol BACT_420, Number 922) was 0.87. For the same molecule, the “Fold change (week 11/week 0) in relative species abundance” value (Symbol BACT_424, Number 906) was 1.13, the “Fold change (week 11/week 0) in relative species abundance” value (Symbol BACT_449, Number 772) was 1.13 and the “Fold change (week 11/week 0) in relative species abundance” value (Symbol BACT_463, Number 719) was 1.55. For the same molecule, the “Fold change (week 11/week 0) in relative species abundance” value (Symbol BACT_496, Number 765) was 0.62, the “Fold change (week 11/week 0) in relative species abundance” value (Symbol BACT_499, Number 35) was 0.73 and the “Fold change (week 11/week 0) in relative species abundance” value (Symbol BACT_511, Number 591) was 1.55. For the same molecule, the “Fold change (week 11/week 0) in relative species abundance” value (Symbol BACT_535, Number 940) was 0.66, the “Fold change (week 11/week 0) in relative species abundance” value (Symbol BACT_539, Number 117) was 0.75 and the “Fold change (week 11/week 0) in relative species abundance” value (Symbol BACT_551, Number 907) was 0.73. The “Fold change (week 11/week 0) in relative species abundance” value (Symbol BACT_572, Number 963) was 0.92, the “Fold change (week 11/week 0) in relative species abundance” value (Symbol BACT_627, Number 886) was 0.66 and the “Fold change (week 11/week 0) in relative species abundance” value (Symbol BACT_681, Number 125) was 1.55. For the same molecule, the “Fold change (week 11/week 0) in relative species abundance” value (Symbol BACT_722, Number 377) was 1.47, the “Fold change (week 11/week 0) in relative species abundance” value (Symbol BACT_843, Number 1318) was 0.69 and the “Fold change (week 11/week 0) in relative species abundance” value (Symbol BACT_850, Number 394) was 1.86. For the same molecule, the “Fold change (week 11/week 0) in relative species abundance” value (Symbol BACT_852, Number 766) was 0.88, the “Fold change (week 11/week 0) in relative species abundance” value (Symbol BACT_855, Number 835) was 1.23 and the “Fold change (week 11/week 0) in relative species abundance” value (Symbol BACT_890, Number 163) was 0.74. For the same molecule, the “Fold change (week 11/week 0) in relative species abundance” value (Symbol BACT_913, Number 904) was 1.17, the “Fold change (week 11/week 0) in relative species abundance” value (Symbol BACT_915, Number 1315) was 1.23 and the “Fold change (week 11/week 0) in relative species abundance” value (Symbol BACT_1001, Number 933) was 0.79. For the same molecule, the “Fold change (week 11/week 0) in relative species abundance” value (Symbol BACT_1083, Number 1008) was 2.25, the “Fold change (week 11/week 0) in relative species abundance” value (Symbol BACT_1131, Number 942) was 0.79 and the “Fold change (week 11/week 0) in relative species abundance” value (Symbol BACT_1311, Number 1259) was 1.16. For the same molecule, the “Fold change (week 11/week 0) in relative species abundance” value (Symbol BACT_1321, Number 1255) was 1.16, the “Fold change (week 11/week 0) in relative species abundance” value (Symbol BACT_1322, Number 1396) was 1.50 and the “Fold change (week 11/week 0) in relative species abundance” value (Symbol BACT_1324, Number 1264) was 2.61. The “Fold change (week 11/week 0) in relative species abundance” value (Symbol BACT_1348, Number 1311) was 1.15, the “Fold change (week 11/week 0) in relative species abundance” value (Symbol BACT_1378, Number 1375) was 2.83 and the “Fold change (week 11/week 0) in relative species abundance” value (Symbol BACT_1427, Number 1266) was 1.13. For the same molecule, the “Fold change (week 11/week 0) in relative species abundance” value (Symbol BACT_1442, Number 1400) was 1.75, the “Fold change (week 11/week 0) in relative species abundance” value (Symbol BACT_1457, Number 1337) was 0.82 and the “Fold change (week 11/week 0) in relative species abundance” value (Symbol BACT_1501, Number 1331) was 0.79. The “Fold change (week 11/week 0) in relative species abundance” value (Symbol BACT_1526, Number 1227) was 1.58, the “Fold change (week 11/week 0) in relative species abundance” value (Symbol BACT_1555, Number 1469) was 0.62 and the “Fold change (week 11/week 0) in relative species abundance” value (Symbol BACT_1569, Number 1462) was 0.78. For the same molecule, the “Fold change (week 11/week 0) in relative species abundance” value (Symbol BACT_1595, Number 1533) was 1.13, the “Fold change (week 11/week 0) in relative species abundance” value (Symbol BACT_1656, Number 1503) was 1.55 and the “Fold change (week 11/week 0) in relative species abundance” value (Symbol BACT_3004, Number 5797) was 1.54. For the same molecule, the “Fold change (week 11/week 0) in relative species abundance” value (Symbol BACT_3005, Number 5799) was 1.56, the “Fold change (week 11/week 0) in relative species abundance” value (Symbol BACT_3007, Number 5798) was 0.94 and the “Fold change (week 11/week 0) in relative species abundance” value (Symbol BACT_3024, Number 5841) was 0.72. The “Fold change (week 11/week 0) in relative species abundance” value (Symbol BACT_3045, Number 5818) was 1.19, the “Fold change (week 11/week 0) in relative species abundance” value (Symbol BACT_3058, Number 5816) was 1.54 and the “Fold change (week 11/week 0) in relative species abundance” value (Symbol BACT_3060, Number 5821) was 1.62. The “Fold change (week 11/week 0) in relative species abundance” value (Symbol BACT_3062, Number 5800) was 1.49, the “Fold change (week 11/week 0) in relative species abundance” value (Symbol BACT_3085, Number 5842) was 1.90 and the “Fold change (week 11/week 0) in relative species abundance” value (Symbol BACT_4040, Number 5769) was 16.24. The “Fold change (week 11/week 0) in relative species abundance” value (Symbol BACT_4042, Number 5770) was 0.28, the “Fold change (week 11/week 0) in relative species abundance” value (Symbol EUKY_222, Number 1954) was 1.60 and the “Fold change (week 11/week 0) in relative species abundance” value (Symbol V1RL3522, Number 3522) was 2.13.
